# Data from US20230181527A1, “APICAL SODIUM-DEPENDENT TRANSPORTER INHIBITOR COMPOSITIONS” (Mirum Pharmaceuticals, Inc., priority 2021, published 2023).
# Tests used:
# MDR2−/− mice = assay: MDR2−/− mouse model of sclerosing cholangitis; type: in vivo
# Description: Methods: 30-day-old female MDR2−/− mice (FVB background) were treated daily for 14 days by orogastric gavage with either vehicle control (Kolliphor and CMC), 100 mg/kg/day bezafibrate (pan-PPAR agonist), 100 mg/kg/day fenofibrate (PPARα agonist), 10 mg/kg seladelpar (PPARδ agonist), 0.008% SC-435 (non-absorbable IBAT inhibitor) admixed to chow, or a combination of SC-435 and PPAR agonists.
# [1] = Maralixibat open label study in PFIC (LUM001-501): pruritus and concomitant antipruritic medication; type: in vivo, human
# From the text: In an open label study to evaluate efficacy and long term safety of maralixibat (LUM001) in the treatment of Cholestatic Liver Disease in patients with Progressive Familial Intrahepatic Cholestasis (PFIC) (Study LUM001-501), participants were not allowed to make any changes to their antipruritic therapy during the 13-week treatment period. No new medications used to treat pruritus were to be added during the 13-week treatment period. Therefore, participants had to be on stable antipruritic medication doses (except for weight-based dose adjustments) during the 13-week treatment period. In the long-term exposure period, changes in antipruritic medications were allowed.
# physchem = conditions: water
# From the text: Since pediatric patients are the target patient population for the proposed cholestatic disease, an oral solution formulation was selected due to its flexibility for dose adjustment based on patient's body weight and the preference for this type of formulation in young children.
# [2] = Solubility of MRX drug substance in water and commercially available vehicles, visual observation; type: physicochemical; conditions: Water; 0.02 mg/mL
# Description: For early pediatric clinical studies, the desired maralixibat solution concentration was in the range of 0.02 to 20 mg/mL (concentration based on maralixibat chloride). Initial formulation studies were conducted to determine the solubility and stability of MRX drug substance in three liquid oral dosing vehicles: water, Pedialyte® (an oral rehydration preparation), and Ora-Sweet® SF (a sugar-free, alcohol-free syrup vehicle for oral preparations). Using these three vehicles, samples were produced with the MRX drug substance at three different concentrations (0.02 mg/mL, 2.0 mg/mL, and 4.0 mg/mL concentrations based on maralixibat chloride). A vortex mixer was used to disperse the drug within the liquid vehicle; drug dissolution status was then visually checked and recorded as in Table 4.
# [3] = Maralixibat clinical studies in ALGS (LUM001-304, LUM001-303, LUM001-305): pruritus and concomitant antipruritic medication; type: in vivo, human
# From the text: In Study LUM001-304, participants were not allowed to make any changes to their antipruritic therapy up to Week 22. In Studies LUM001-301 and LUM001-302, no changes to the antipruritic comedications were allowed throughout the period of the primary analysis up to Week 13. Therefore, across all studies, participants had to be on stable antipruritic medication doses (except for weight-based dose adjustments) throughout the randomized controlled periods. […] Participants in LUM001-302 received either 140 μg/kg/day or 280 μg/kg/day of maralixibat (as maralixibat chloride). The long-term LUM001-303 dosing was 280 μg/kg QD and 280 μg/kg BID. The long term LUM001-305 dosing was at 280 μg/kg/day. After these stable-dosing periods in the long-term extension studies, changes in antipruritic medications were allowed. Weight-based dose adjustments in antipruritic medications were anticipated over the course of a 5-year study.
# [4] = female MDR2−/− mice, daily for 14 days
# [5] = Study LUM001-303, long-term extension, of the 19 participants
# [6] = Study LUM001-305, long term extension, of the 34 participants
smiles,measurement,setting,value
CCCCC1(CCCC)CS(=O)(=O)c2ccc(N(C)C)cc2[C@@H](c2ccc(OCc3ccc(C[N+]45CCN(CC4)CC5)cc3)cc2)[C@H]1O.[Cl-] [SC-435],serum ALP,"MDR2−/− mice; female MDR2−/− mice (FVB background), daily for 14 days",increased
same,liver to body weight ratio,MDR2−/− mice; [4],attenuated
same,retention of BA in the liver,MDR2−/− mice; [4],significantly reduced
same,serum BA concentrations,MDR2−/− mice; [4],decreased
same,serum TB concentrations,MDR2−/− mice; [4],reduced
same,potency in reducing serum total BA and TB levels,MDR2−/− mice; mouse model of SC,more potent than PPAR agonists
CCCCC1(CCCC)CS(=O)(=O)c2ccc(N(C)C)cc2[C@@H](c2ccc(OCc3ccc(C[N+]45CCN(CC4)CC5)cc3)cc2)[C@H]1O [maralixibat chloride],pruritus control after discontinuing one or more antipruritic medications,"[1]; 5 exemplary PFIC patients, FIGS. 3A-3E",still maintain control of pruritus
same,participants with a decrease in dose or discontinuation of antipruritic medications,"[1]; Study LUM001-501, N=33",13 participants
same,participants with an increase in dose of antipruritic medication,"[1]; Study LUM001-501, N=33",5 participants
same,"pruritus, ItchRO(Obs) scores","[1]; Study LUM001-501, sustained period of follow-up",general improvements in pruritus
same,solubility,physchem,> 100 mg/mL
same,Solubility Observations,[2],Dissolved Instantly
same,pruritus scores,"[3]; ALGS studies, long-term follow-up",consistently improved
same,participants who experienced a decrease in concomitant antipruritic medication,[3]; [5],2 participants
same,participants who experienced an increase in concomitant antipruritic medication,[3]; [5],Five
same,participants with no or minimal change in concomitant antipruritic medication,[3]; [5],12 participants
same,pruritus reduction and proportion of participants reducing concomitant antipruritic medication,"[3]; Study LUM001-304, 400 μg/kg dose, compared with supporting ALGS studies at lower doses",greatest pruritus reduction and the largest proportion of participants reducing concomitant antipruritic medication
same,participants who experienced a decrease in concomitant antipruritic medication,"[3]; Study LUM001-304, after Week 22, long-term extension, of the 29 participants",10 participants
same,participants who experienced a decrease in concomitant antipruritic medication,[3]; [6],10 participants
same,participants who experienced an increase in concomitant antipruritic medication,[3]; [6],Seven
same,participants with no or minimal change in concomitant antipruritic medication,[3]; [6],17 participants
